Source: patent US8569267B2, “Tetracyclic tetrahydrofuran derivatives containing cyclic amine side chain” (Janssen Pharmaceutica, NV, priority 2005, dated 2013)

What was measured:
[1] = target: T1, human cloned 5-HT2C receptor, expressed in CHO cells (Homo sapiens, UniProt P28335); test: In vitro binding affinity for 5-HT2C receptor ([3H]mesulergine radioligand binding); details: human cloned 5-HT2C receptor; for IC50: read-out: 5-HT2C pIC50 (converted)
T1 construct: expressed in transfected cells; host or cells: CHO cells
T1 sequence (P28335 33-458): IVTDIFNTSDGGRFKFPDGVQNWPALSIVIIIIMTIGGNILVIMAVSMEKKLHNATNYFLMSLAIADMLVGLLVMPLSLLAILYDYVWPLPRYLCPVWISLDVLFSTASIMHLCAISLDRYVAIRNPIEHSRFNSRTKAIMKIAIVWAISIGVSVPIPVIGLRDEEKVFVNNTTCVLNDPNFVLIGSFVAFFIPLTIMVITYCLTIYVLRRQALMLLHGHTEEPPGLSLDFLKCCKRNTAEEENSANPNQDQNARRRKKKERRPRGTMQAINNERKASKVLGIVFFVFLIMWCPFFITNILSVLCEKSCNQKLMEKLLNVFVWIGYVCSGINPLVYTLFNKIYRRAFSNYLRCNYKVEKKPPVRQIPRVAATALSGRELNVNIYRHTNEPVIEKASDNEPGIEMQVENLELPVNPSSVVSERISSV
Protocol: In Vitro Binding Affinity for 5-HT2A and 5-HT2C Receptors
The interaction of the compounds of Formula (I) with 5-HT2A and 5-HT2C receptors was assessed in in vitro radioligand binding experiments. […] During the incubation, the radioligands bind to the receptor. When equilibrium of binding is reached, the receptor bound radioactivity is separated from the non-bound radioactivity, and the receptor bound activity is counted. The interaction of the test compounds with the receptors is assessed in competition binding experiments. Various concentrations of the test compound are added to the incubation mixture containing the tissue preparation and the radioligand. Binding of the radioligand will be inhibited by the test compound in proportion to its binding affinity and its concentration.

[2] = target: T2, human Dopamine D2L receptor (Homo sapiens, UniProt P14416); test: In vitro binding affinity for human D2L receptor ([3H]Spiperone binding); details: human D2L receptor-transfected CHO cell membranes; for IC50: read-out: D2L pIC50 (converted)
T2 construct: expressed in transfected cells; host or cells: CHO cells
Protocol: In Vitro Binding Affinity for Human D2L Receptor
Frozen membranes of human Dopamine D2L receptor-transfected CHO cells were thawed, briefly homogenised using an Ultra-Turrax T25 homogeniser and diluted in Tris-HCl assay buffer containing NaCl, CaCl2, MgCl2, KCl (50, 120, 2, 1, and 5 mM respectively, adjusted to pH 7.7 with HCl) to an appropriate protein concentration optimised for specific and non-specific binding. Radioligand [^3H]Spiperone (NEN, specific activity ˜70 Ci/mmol) was diluted in assay buffer at a concentration of 2 nmol/L. Prepared radioligand (50 μl), along with 50 μl of either the 10% DMSO control, Butaclamol (10^−6 mol/l final concentration), or compound of interest, was then incubated (30 min, 37° C.) with 400 μl of the prepared membrane solution. Membrane-bound activity was filtered through a Packard Filtermate harvester onto GF/B Unifilterplates and washed with ice-cold Tris-HCl buffer (50 mM; pH 7.7; 6×0.5 ml). Filters were allowed to dry before adding scintillation fluid and counting in a Topcount scintillation counter. Percentage specific bound and competition binding curves were calculated using S-Plus software (Insightful).

[3] = target: T3, NET (norepinephrine transporter) (Rattus norvegicus, UniProt Q63380); test: In vitro determination of NET reuptake inhibition ([3H]Nixosetine binding, rat brain cortex); details: rat brain cortex; for IC50: read-out: NET pIC50 (converted)
T3 construct: Cortex from rat brain was collected and homogenised; from tissue; host or cells: rat brain cortex
Protocol: In Vitro Determination of NET Reuptake Inhibition
Cortex from rat brain was collected and homogenised using an Ultra-Turrax T25 and a Dual homogeniser in ice-cold homogenising buffer containing Tris, NaCl and KCl (50 mM, 120 mM and 5 mM, respectively, pH 7.4) prior to dilution to an appropriate protein concentration optimised for specific and non-specific binding. […] Membrane-bound activity was detected by filtration through a Packard Filtermate harvester onto GF/B Unifilterplates, washed with ice-cold Tris-HCl buffer, containing NaCl and KCl (50 mM, 120 mM and 4 mM; pH 7.4; 6×0.5 ml). Filters were allowed to dry for 24 h before adding scintillation fluid. Scintillation fluid was allowed to saturate filters for 24 h before counting in a Topcount scintillation counter. Percentage specific bound and competition binding curves were calculated using S-Plus software (Insightful).

T3 sequence (Q63380 1-617): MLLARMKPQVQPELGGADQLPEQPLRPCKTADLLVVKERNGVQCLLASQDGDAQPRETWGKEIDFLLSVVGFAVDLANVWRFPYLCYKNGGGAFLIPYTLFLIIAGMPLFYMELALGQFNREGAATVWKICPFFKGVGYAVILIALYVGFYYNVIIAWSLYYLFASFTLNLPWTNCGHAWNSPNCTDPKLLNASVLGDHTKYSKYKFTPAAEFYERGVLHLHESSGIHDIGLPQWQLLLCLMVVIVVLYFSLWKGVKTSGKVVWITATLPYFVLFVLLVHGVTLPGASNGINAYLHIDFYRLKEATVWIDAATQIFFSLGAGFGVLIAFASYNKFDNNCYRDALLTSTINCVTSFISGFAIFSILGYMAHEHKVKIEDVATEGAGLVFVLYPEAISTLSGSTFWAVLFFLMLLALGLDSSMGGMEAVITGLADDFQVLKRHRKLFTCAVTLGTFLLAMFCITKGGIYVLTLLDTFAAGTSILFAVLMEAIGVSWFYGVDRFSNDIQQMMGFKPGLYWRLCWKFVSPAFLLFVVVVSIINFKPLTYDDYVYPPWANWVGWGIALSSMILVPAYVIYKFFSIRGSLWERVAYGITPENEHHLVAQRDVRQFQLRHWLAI
T2 sequence (P14416 whole entry): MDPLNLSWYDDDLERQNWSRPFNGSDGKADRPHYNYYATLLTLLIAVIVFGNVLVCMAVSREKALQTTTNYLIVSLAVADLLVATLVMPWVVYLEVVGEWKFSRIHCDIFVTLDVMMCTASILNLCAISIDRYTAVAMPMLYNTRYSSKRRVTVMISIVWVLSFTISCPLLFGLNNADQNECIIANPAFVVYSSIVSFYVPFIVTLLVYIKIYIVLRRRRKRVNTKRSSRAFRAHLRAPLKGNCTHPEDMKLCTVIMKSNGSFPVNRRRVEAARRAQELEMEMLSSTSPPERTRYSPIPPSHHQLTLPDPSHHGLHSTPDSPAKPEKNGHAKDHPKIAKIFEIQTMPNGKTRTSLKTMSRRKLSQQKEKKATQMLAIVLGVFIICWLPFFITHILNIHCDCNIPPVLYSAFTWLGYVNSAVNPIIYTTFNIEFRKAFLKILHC

| SMILES | IC50 [1] [nM] | IC50 [2] [nM] | IC50 [3] [nM] | 5-HT2C pIC50 [1] | D2L pIC50 [2] | NET pIC50 [3] |
| --- | --- | --- | --- | --- | --- | --- |
| CC1c2ccccc2C2CC(CN3CCC(O)C3)OC2c2cc(F)ccc21.O=C(O)C(=O)O (mixture of isomers) [Compound 45] | – | – | – | 8.66 | 6.46 | 7.33 |
| CC1c2ccccc2C2CC(CN3CCC(O)C3)OC2c2cc(F)ccc21 (mixture of isomers) [Compound 46] | 1.1 | 17.4 | 2400 | – | – | – |
| OCCC1CCCN(CC2CC3c4ccccc4Cc4ccc(F)cc4C3O2)C1 (mixture of isomers) [Compound 152] | 4.17 | 17 | 3800 | – | – | – |
| O=C(NC1CCN(CC2CC3c4ccccc4Cc4ccc(F)cc4C3O2)CC1)NC1CC1c1ccccc1 (mixture of isomers) [Compound 246] | 5.75 | 11.7 | 1350 | – | – | – |
| N#Cc1ccc2c(c1)C1CC(CN3CCC(O)C3)OC1c1cc(F)ccc1S2.O=C(O)C(=O)O (mixture of isomers) [Compound 259] | – | – | – | 7.64 | 6.59 | 5.38 |
| O=C(O)C(=O)O.O[C@@H]1CCN(C[C@H]2C[C@@H]3c4ccccc4Cc4ccc(F)cc4[C@@H]3O2)C1 [Compound 2] | – | – | – | 9.58 | 7.86 | 6.34 |
| O=C(O)C(=O)O.O[C@H]1CCN(C[C@H]2C[C@@H]3c4ccccc4Cc4ccc(F)cc4[C@@H]3O2)C1 [Compound 3] | – | – | – | 9.57 | 8.01 | 5.45 |
| OC1CCN(C[C@H]2C[C@@H]3c4ccccc4Cc4ccc(F)cc4[C@@H]3O2)CC1 [Compound 144, [2R-(2α, 3aα, 12bβ)]1-(11-fluoro-3,3a,8,12b-tetrahydro-2H-1-oxa-dibenzo[e,h]azulen-2-ylmethyl)-piperidin-4-ol.oxalate (1:1)] | 0.692 | 4.79 | > 10000 | – | – | – |
| OCC1CCN(CC2CC3c4ccccc4Cc4ccc(F)cc4C3O2)CC1 (stereo not drawn) [Compound 151] | 1.23 | 1.35 | > 10000 | – | – | – |
| O=C(O)C1CCN(C[C@H]2C[C@@H]3c4ccccc4Cc4ccc(F)cc4[C@@H]3O2)CC1 [Compound 157] | 7.24 | 132 | > 10000 | – | – | – |
| CCOC(=O)C1CCN(C[C@H]2C[C@@H]3c4ccccc4Cc4ccc(F)cc4[C@@H]3O2)CC1 [Compound 162] | 1.02 | 3.63 | > 10000 | – | – | – |
| CCOC(=O)CC1CCN(CC2CC3c4ccccc4Cc4ccc(F)cc4C3O2)CC1 (stereo not drawn) [Compound 164, [2R-(2α, 3aα, 12bβ)][1-(11-fluoro-3,3a,8,12b-tetrahydro-2H-1-oxa-dibenzo[e,h]-azulen-2-ylmethyl)-piperidin-4-yl]-acetic acid ethyl ester.oxalate (1:1)] | 7.59 | 2.88 | 5500 | – | – | – |
| CC(=O)OC1CCN(C[C@H]2C[C@@H]3c4ccccc4Cc4ccc(F)cc4[C@@H]3O2)CC1 [Compound 166] | < 1 | 2.09 | 7240 | – | – | – |
| O=C(NCc1cccc(C(F)(F)F)c1)C1CCN(CC2CC3c4ccccc4Cc4ccc(F)cc4C3O2)CC1 (stereo not drawn) [Compound 182] | 8.32 | 31.6 | 6920 | – | – | – |
| O=C(NCc1ccco1)C1CCN(CC2CC3c4ccccc4Cc4ccc(F)cc4C3O2)CC1 (stereo not drawn) [Compound 194] | 1.45 | 5.01 | 9120 | – | – | – |
| O=C(NCc1ccccn1)C1CCN(CC2CC3c4ccccc4Cc4ccc(F)cc4C3O2)CC1 (stereo not drawn) [Compound 197] | 1 | 4.57 | 8510 | – | – | – |
| CC(C)(C)OC(=O)N1CCN(C(=O)C2CCN(CC3CC4c5ccccc5Cc5ccc(F)cc5C4O3)CC2)CC1 (stereo not drawn) [Compound 206] | 9.33 | 40.7 | 1700 | – | – | – |
| O=C(C1CCN(CC2CC3c4ccccc4Cc4ccc(F)cc4C3O2)CC1)N1CC=C(c2ccccc2)CC1 (stereo not drawn) [Compound 207] | 6.76 | 25.7 | 6170 | – | – | – |
| N#CC1(c2ccccc2)CCN(C(=O)C2CCN(CC3CC4c5ccccc5Cc5ccc(F)cc5C4O3)CC2)CC1 (stereo not drawn) [Compound 208] | 7.94 | 22.9 | > 10000 | – | – | – |
| CCCOC(=O)NC1CCN(CC2CC3c4ccccc4Cc4ccc(F)cc4C3O2)CC1 (stereo not drawn) [Compound 212] | 7.41 | 6.03 | 7080 | – | – | – |
| CCCCOC(=O)NC1CCN(CC2CC3c4ccccc4Cc4ccc(F)cc4C3O2)CC1 (stereo not drawn) [Compound 213] | 15.5 | 8.71 | 4370 | – | – | – |
| CC(C)(C)COC(=O)NC1CCN(CC2CC3c4ccccc4Cc4ccc(F)cc4C3O2)CC1 (stereo not drawn) [Compound 215] | – | 15.8 | 7410 | – | – | – |
| COCCOC(=O)NC1CCN(CC2CC3c4ccccc4Cc4ccc(F)cc4C3O2)CC1 (stereo not drawn) [Compound 216] | 6.17 | 10.2 | > 10000 | – | – | – |
| C#CCOC(=O)NC1CCN(CC2CC3c4ccccc4Cc4ccc(F)cc4C3O2)CC1 (stereo not drawn) [Compound 217] | 4.07 | 4.9 | 8910 | – | – | – |
| O=C(O)C(=O)O.OC1CCN(CC2CC3c4ccccc4Oc4ccc(F)cc4C3O2)CC1 (stereo not drawn) [Compound 283] | – | – | – | – | 6.70 | – |

Further lines, with some results ahead:

| IC50 [1] [nM] | IC50 [2] [nM] | IC50 [3] [nM] | SMILES | 5-HT2C pIC50 [1] | D2L pIC50 [2] | NET pIC50 [3] |
| --- | --- | --- | --- | --- | --- | --- |
| 30.9 | 19.5 | 2400 | Fc1ccc2c(c1)C1OC(CN3CCOC(CCOc4ccccc4)C3)CC1c1ccccc1C2 (mixture of isomers) [Compound 131] | – | – | – |
| 1.15 | 16.6 | 4790 | OC1CCCN(CC2CC3c4ccccc4Cc4ccc(F)cc4C3O2)C1 (racemic) [Compound 141] | – | – | – |
| 3.16 | 14.5 | 2400 | OC1CCCN(CC2CC3c4ccccc4Cc4ccc(F)cc4C3O2)C1 (single isomer, unassigned) [Compound 142] | – | – | – |
| 1.82 | 12.6 | > 10000 | OC1CCCN(CC2CC3c4ccccc4Cc4ccc(F)cc4C3O2)C1 (single isomer, unassigned) [Compound 143] | – | – | – |
| 24.5 | 56.2 | > 10000 | COc1ccc(NC(=O)CC2CN(C[C@H]3C[C@@H]4c5ccccc5Cc5ccc(F)cc5[C@@H]4O3)CCO2)cc1 (stereo partly drawn) [Compound 139] | – | – | – |
| 2.88 | 14.5 | > 10000 | CCOC(=O)C1CCCN(C[C@H]2C[C@@H]3c4ccccc4Cc4ccc(F)cc4[C@@H]3O2)C1 (stereo partly drawn) [Compound 160] | – | – | – |
| 10.7 | 15.5 | > 10000 | CC(C)c1ccccc1NC(=O)C1CCN(CC2CC3c4ccccc4Cc4ccc(F)cc4C3O2)CC1 (stereo not drawn) [Compound 185] | – | – | – |
| 1.17 | 7.76 | > 10000 | O=C(Nc1ccccc1F)C1CCN(CC2CC3c4ccccc4Cc4ccc(F)cc4C3O2)CC1 (stereo not drawn) [Compound 189] | – | – | – |
| 1.62 | 5.5 | 7760 | O=C(NCc1cccs1)C1CCN(CC2CC3c4ccccc4Cc4ccc(F)cc4C3O2)CC1 (stereo not drawn) [Compound 195] | – | – | – |
| 5.01 | 14.1 | 2750 | O=C(NCc1cccc(I)c1)C1CCN(CC2CC3c4ccccc4Cc4ccc(F)cc4C3O2)CC1 (stereo not drawn) [Compound 196] | – | – | – |
| 4.17 | 7.94 | 7410 | COC(=O)NC1CCN(CC2CC3c4ccccc4Cc4ccc(F)cc4C3O2)CC1 (stereo not drawn) [Compound 210] | – | – | – |
| 5.75 | 5.89 | > 10000 | CCOC(=O)NC1CCN(CC2CC3c4ccccc4Cc4ccc(F)cc4C3O2)CC1 (stereo not drawn) [Compound 211] | – | – | – |
